Values belong to the compound of their own block, whether it stands above or below them. The source made the active and inactive calls. No cut-off for these calls is given here.
Key:
[1] = biological target: L-lactate dehydrogenase A chain (Homo sapiens, UniProt P00338); experiment: Inhibition of human LDH-A incubated for 10 mins in presence of […] by fluorescence based reader assay
[2] = biological target: L-lactate dehydrogenase B chain (Homo sapiens, UniProt P07195); experiment: Inhibition of human LDH-B incubated for 10 mins in presence of […] by fluorescence based reader assay
Chain of L-lactate dehydrogenase B chain (P07195 whole entry): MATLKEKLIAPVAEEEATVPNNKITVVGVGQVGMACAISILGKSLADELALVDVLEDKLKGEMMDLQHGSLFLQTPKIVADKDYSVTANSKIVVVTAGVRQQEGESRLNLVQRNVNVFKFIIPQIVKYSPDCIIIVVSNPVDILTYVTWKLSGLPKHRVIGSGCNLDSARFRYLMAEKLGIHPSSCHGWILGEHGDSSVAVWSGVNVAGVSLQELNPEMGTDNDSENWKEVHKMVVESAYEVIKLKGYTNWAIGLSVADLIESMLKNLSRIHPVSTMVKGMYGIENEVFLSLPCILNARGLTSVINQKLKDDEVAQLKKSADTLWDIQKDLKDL

PANC-1 = experiment: Antiproliferative activity against human PANC-1 cells incubated for 48 hrs by Hoechst 33342 and SYTOX green staining based confocal imaging analysis; assay type: functional, cell-based; settings: PANC-1, 48 h
[3] = Thermodynamic solubility in PBS at pH 7.4; assay type: physicochemical; settings: buffer
[4] = Metabolic stability in human liver microsomes assessed as compound remaining after 10 mins; assay type: ADME, Microsome; settings: read-out: Stability
[5] = test system: Pancreatic cancer organoid; experiment: Antiproliferative activity against human Pancreatic cancer organoid after 72 hrs by MTS assay; assay type: functional, tissue-based
[6] = Lipophilicity, logP of compound; assay type: physicochemical; settings: octanol/water
[7] = Metabolic stability in mouse liver microsomes assessed as compound remaining after 60 mins; assay type: ADME, Microsome; settings: read-out: Stability
[8] = Oral bioavailability in CD1 mouse at 5 mg/kg; assay type: ADME, organism-based; settings: in vivo
[9] = Metabolic stability in mouse liver microsomes assessed as intrinsic clearance per mg protein; assay type: ADME, Microsome
[10] = AUC(0 to infinity) in CD1 mouse at 1 mg/kg, iv; assay type: ADME, organism-based; settings: in vivo
MIA PaCa-2 [11] = experiment: Reduction in total ATP production rate in human MIA PaCa-2 cells at 15 to 30 uM incubated for 24 hrs by Seahorse assay; assay type: functional, cell-based; settings: dose 15-30 µM
[12] = Cytotoxicity against HPNEs incubated for 48 hrs by Hoechst 33342 and SYTOX green staining based confocal imaging analysis; assay type: toxicity, cell-based; settings: human, HPNE cells
[13] = Cmax in CD1 mouse at 1 mg/kg, iv; assay type: ADME, organism-based; settings: in vivo
[14] = Metabolic stability in human liver microsomes assessed as half-life; assay type: ADME, Microsome
MIA PaCa-2 [15] = experiment: Reduction in intracellular lactate production in human MIA PaCa-2 cells at 15 uM incubated for 6 to 24 hrs by colorimetric assay; assay type: functional, cell-based; settings: time 6-24 hrs
[16] = Metabolic stability in mouse liver microsomes assessed as compound remaining after 20 mins; assay type: ADME, Microsome; settings: read-out: Stability
[17] = Clearance in CD1 mouse at 1 mg/kg, iv; assay type: ADME, organism-based; settings: in vivo
[18] = Volume of distribution in CD1 mouse at 1 mg/kg, iv; assay type: ADME, organism-based; settings: in vivo
MIA PaCa-2 [19] = experiment: Reduction in succinic acid level in human MIA PaCa-2 cells at 15 uM incubated for 6 hrs by UPLC-MS analysis; assay type: functional, cell-based
[20] = Half-life in CD1 mouse at 5 mg/kg, po; assay type: ADME, organism-based; settings: in vivo
[21] = Metabolic stability in human liver microsomes assessed as intrinsic clearance per mg protein; assay type: ADME, Microsome
[22] = Tmax in CD1 mouse at 5 mg/kg, po; assay type: ADME, organism-based; settings: in vivo
[23] = Metabolic stability in human liver microsomes assessed as compound remaining after 30 mins; assay type: ADME, Microsome; settings: read-out: Stability
MIA PaCa-2 [24] = experiment: Reduction in isocitric acid level in human MIA PaCa-2 cells at 15 uM incubated for 24 hrs by UPLC-MS analysis; assay type: functional, cell-based
MIA PaCa-2 [25] = experiment: Inhibition of basal glycolysis in human MIA PaCa-2 cells at 10 to 30 uM; assay type: functional, cell-based; settings: dose 10-30 µM
MIA PaCa-2 [26] = experiment: Antiproliferative activity against human MIA PaCa-2 cells incubated for 48 hrs by Hoechst 33342 and SYTOX green staining based confocal imaging analysis; assay type: functional, cell-based; settings: MIA PaCa-2, 48 h
MIA PaCa-2 [27] = experiment: Reduction in total ATP production in human MIA PaCa-2 cells at 10 uM incubated for 48 hrs by Celltiter-glo assay; assay type: functional, cell-based
MIA PaCa-2 [28] = experiment: Reduction in total ATP production in human MIA PaCa-2 cells at 15 to 30 uM incubated for 48 hrs by Celltiter-glo assay; assay type: functional, cell-based; settings: dose 15-30 µM
[29] = Cmax in CD1 mouse at 5 mg/kg, po; assay type: ADME, organism-based; settings: in vivo
[30] = Half-life in CD1 mouse at 1 mg/kg, iv; assay type: ADME, organism-based; settings: in vivo
MIA PaCa-2 [31] = experiment: Reduction in pyruvate level in human MIA PaCa-2 cells at 15 uM incubated for 6 to 24 hrs by UPLC-MS analysis; assay type: functional, cell-based; settings: time 6-24 hrs
[32] = Metabolic stability in mouse liver microsomes assessed as compound remaining after 30 mins; assay type: ADME, Microsome; settings: read-out: Stability
MIA PaCa-2 [33] = experiment: Reduction in lactate production in human MIA PaCa-2 cells incubated for 6 hrs by colorimetric assay; assay type: functional, cell-based; settings: dose 15-30 µM
MIA PaCa-2 [34] = experiment: Reduction in citric acid level in human MIA PaCa-2 cells at 15 uM incubated for 24 hrs by UPLC-MS analysis; assay type: functional, cell-based
[35] = Antiproliferative activity against mouse FC-1199 cells incubated for 48 hrs by Hoechst 33342 and SYTOX green staining based confocal imaging analysis; assay type: functional, cell-based; settings: FC-1199, 48 h
[36] = Metabolic stability in mouse liver microsomes assessed as compound remaining after 10 mins; assay type: ADME, Microsome; settings: read-out: Stability
[37] = AUC(0 to infinity) in CD1 mouse at 5 mg/kg, po; assay type: ADME, organism-based; settings: in vivo
MIA PaCa-2 [38] = experiment: Reduction in glycolytic ATP production rate in human MIA PaCa-2 cells at 15 to 30 uM incubated for 24 hrs by Seahorse assay; assay type: functional, cell-based; settings: dose 15-30 µM
MIA PaCa-2 [39] = experiment: Synergistic antiproliferative activity against human MIA PaCa-2 cells at 20 uM incubated for 48 hrs in presence of phenformin by fluorescence based confocal imaging analysis; assay type: functional, cell-based
MIA PaCa-2 [40] = experiment: Inhibition of compensatory glycolysis in human MIA PaCa-2 cells at 10 to 30 uM; assay type: functional, cell-based; settings: dose 10-30 µM
[41] = Metabolic stability in mouse liver microsomes assessed as half-life; assay type: ADME, Microsome
[42] = Metabolic stability in human liver microsomes assessed as compound remaining after 20 mins; assay type: ADME, Microsome; settings: read-out: Stability
[43] = Metabolic stability in human liver microsomes assessed as compound remaining after 60 mins; assay type: ADME, Microsome; settings: read-out: Stability
[44] = Drug metabolism in mouse assessed as AUC(0 to infinity) of 4-((4-(1-methyl-1H-imidazole-2-carbonyl)phenyl)amino)-4-oxo-2-(4-(trifluoromethyl)phenyl)butanoic acid at 1 mg/kg, iv; assay type: ADME, organism-based; settings: in vivo
[45] = Drug metabolism in mouse assessed as AUC(0 to infinity) of 4-((4-(1-methyl-1H-imidazole-2-carbonyl)phenyl)amino)-4-oxo-2-(4-(trifluoromethyl)phenyl)butanoic acid at 5 mg/kg, po; assay type: ADME, organism-based; settings: in vivo
[46] = Drug metabolism in mouse assessed as metabolite 4-((4-(1-methyl-1H-imidazole-2-carbonyl)phenyl)amino)-4-oxo-2-(4-(trifluoromethyl)phenyl)butanoic acid cumulative half-life by LC-MS/MS analysis; assay type: ADME
[47] = Drug metabolism in mouse assessed as Cmax of 4-((4-(1-methyl-1H-imidazole-2-carbonyl)phenyl)amino)-4-oxo-2-(4-(trifluoromethyl)phenyl)butanoic acid at 5 mg/kg, po; assay type: ADME, organism-based; settings: in vivo
[48] = Drug metabolism in mouse assessed as tmax of 4-((4-(1-methyl-1H-imidazole-2-carbonyl)phenyl)amino)-4-oxo-2-(4-(trifluoromethyl)phenyl)butanoic acid at 1 mg/kg, iv; assay type: ADME, organism-based; settings: in vivo
[49] = Drug metabolism in mouse assessed as half-life of 4-((4-(1-methyl-1H-imidazole-2-carbonyl)phenyl)amino)-4-oxo-2-(4-(trifluoromethyl)phenyl)butanoic acid at 5 mg/kg, po; assay type: ADME, organism-based; settings: in vivo
[50] = Drug metabolism in mouse assessed as half-life of 4-((4-(1-methyl-1H-imidazole-2-carbonyl)phenyl)amino)-4-oxo-2-(4-(trifluoromethyl)phenyl)butanoic acid at 1 mg/kg, iv; assay type: ADME, organism-based; settings: in vivo
[51] = Drug metabolism in mouse assessed as Cmax of 4-((4-(1-methyl-1H-imidazole-2-carbonyl)phenyl)amino)-4-oxo-2-(4-(trifluoromethyl)phenyl)butanoic acid at 1 mg/kg, iv; assay type: ADME, organism-based; settings: in vivo
[52] = Drug metabolism in mouse assessed as tmax of 4-((4-(1-methyl-1H-imidazole-2-carbonyl)phenyl)amino)-4-oxo-2-(4-(trifluoromethyl)phenyl)butanoic acid at 5 mg/kg, po; assay type: ADME, organism-based; settings: in vivo

Compound: Cn1ccnc1C(=O)c1ccc(NC(=O)CC(C(=O)O)c2ccc(C(F)(F)F)cc2)cc1 (stereo unspecified)
IC50 (PANC-1): 43.3 µM
Therm_solubility [3]: 7685 µg/mL
remaining at 10 min [4]: 95.5%
IC50 [5]: 32.3 µM
logP [6]: 2.47
remaining at 1 h [7]: 88.4%
F [8]: 33%
CLint [9]: < 23 µL/min/mg
AUC(0-inf) [10]: 10 µM·h
Activity (MIA PaCa-2 [11]): Active
IC50 at 48 h [12]: > 50 µM
Cmax [13]: 21.2 µM
t1/2 [14]: > 1 h
Activity (MIA PaCa-2 [15]): Active
remaining at 20 min [16]: 96%
clearance ([17]; mouse, iv, 1 mg/kg): 110 mL/min/kg
Vd [18]: 0.9 L/kg
Activity (MIA PaCa-2 [19]): Active
half-life [20]: 2.4 h
CLint [21]: < 23 µL/min/mg
Tmax [22]: 0.5 h
remaining at 0.5 h [23]: 90.5%
Activity (MIA PaCa-2 [24]): Active
inhibition (MIA PaCa-2 [25]): Active
IC50 (MIA PaCa-2 [26]): 14.1 µM
Activity (MIA PaCa-2 [27]): inactive
Activity (MIA PaCa-2 [28]): Active
Cmax [29]: 10.4 µM
half-life [30]: 2.9 h
Activity (MIA PaCa-2 [31]): Active
remaining at 0.5 h [32]: 98%
Activity (MIA PaCa-2 [33]): Dose-Dependent Effect
Activity (MIA PaCa-2 [34]): Active
IC50 [35]: 20.8 µM
remaining at 10 min [36]: 98.6%
AUC(0-inf) [37]: 36.4 µM·h
Activity (MIA PaCa-2 [38]): Active
Activity (MIA PaCa-2 [39]): Active
inhibition (MIA PaCa-2 [40]): Active
t1/2 [41]: > 1 h
remaining at 20 min [42]: 94.8%
remaining at 1 h [43]: 75.6%

Compound: COC(=O)C(CC(=O)Nc1ccc(N2CCOCC2)c(F)c1)c1ccc(C(F)(F)F)cc1 (stereo unspecified)
IC50 [1]: 71.5 µM

Compound: COC(=O)C(CC(=O)Nc1ccc(C(=O)c2nccn2C)cc1)c1ccccc1 (stereo unspecified)
IC50 [1]: 2.49 µM

Compound: Cn1ccnc1C(=O)c1ccc(NC(=O)CC(C(=O)O)c2csc(-c3ccccc3)n2)cc1 (stereo unspecified)
IC50 [1]: 29.9 µM

More lines, main results first:

IC50 [1]: > 100 µM
IC50 [2]: > 100 µM
Compound: O=C(O)CC(NC(=O)Cc1ccc(C(F)(F)F)cc1)c1cccc(Cl)c1 (stereo unspecified)

IC50 [1]: > 100 µM
IC50 [2]: > 100 µM
Compound: O=C(O)CC(NC(=O)c1ccccc1Cl)c1cccc(Cl)c1 (stereo unspecified)

IC50 [1]: > 100 µM
IC50 [2]: > 100 µM
Compound: COC(=O)C(CC(=O)Nc1ccc(Cl)nn1)c1ccc(C(F)(F)F)cc1 (stereo unspecified)

F [8]: 73%
AUC [44]: 4.04 µM·h
AUC(0-inf) [10]: 0.328 µM·h
AUC [45]: 25.96 µM·h
Cmax [13]: 1.02 µM
clearance ([17]; CD1, mouse): 110 mL/min/kg
Vd [18]: 10 L/kg
half-life [20]: 1.63 h
Tmax [22]: 0.25 h
t1/2 [46]: 4.5 h
Cmax [47]: 9.76 µM
Tmax [48]: 0.5 h
Cmax [29]: 0.48 µM
t1/2 [49]: 2.92 h
half-life [30]: 1.19 h
t1/2 [50]: 2.18 h
Cmax [51]: 1.01 µM
Tmax [52]: 0.5 h
AUC(0-inf) [37]: 0.551 µM·h
Compound: COC(=O)C(CC(=O)Nc1ccc(C(=O)c2nccn2C)cc1)c1ccc(C(F)(F)F)cc1 (stereo unspecified)
IC50 (PANC-1): 23.9 µM
IC50 at 48 h [12]: 49.5 µM
IC50 (MIA PaCa-2 [26]): 25.6 µM
IC50 [35]: 12.1 µM

IC50 [1]: > 100 µM
IC50 [2]: > 100 µM
Compound: O=C(CC(C(=O)O)c1ccc(C(F)(F)F)cc1)Nc1ccc(-c2cccs2)cc1 (stereo unspecified)

Source: ChEMBL document CHEMBL5584248, “Synthesis and biological characterization of an orally bioavailable lactate dehydrogenase-A inhibitor against pancreatic cancer” (Eur J Med Chem, 2024)
